A word on the IC50: it is the concentration that inhibits the measured activity by half.

This is an account of results in publication PMC11414412, “Design and synthesis new indole-based aromatase/iNOS inhibitors with apoptotic antiproliferative activity” (Frontiers in Chemistry, 2024).

Like-named read-outs stand apart in the source and are kept apart here.

Assay [1] deals with Bcl-2. Kind of assay: Bcl-2 inhibition assay. The assay is classed as cell-based, human. Conditions: lung (A-549) cancer cells, compound at IC50. The procedure: 4.2.8. Bcl-2 inhibition assay
Mix all reagents thoroughly without foaming before use. Wash the microwells twice with approximately 300 μL Wash Buffer per well with thorough aspiration of microwell contents between washes. Take caution not to scratch the surface of the microwells. After the last wash, empty the wells and tap microwell strips on absorbent pad or paper towel to remove excess Wash Buffer. Use the microwell strips immediately after washing or place upside down on a wet absorbent paper for not longer than 15 minutes. […] Add 100 μL of Sample […]
Diluent in duplicate to all standard wells and to the blank wells. Prepare standard (1:2 dilution) in duplicate ranging from 32 ng/mL to 0.5 ng/mL. Add 100 μL of Sample Diluent, in duplicate, to the blank wells. Add 80 μL of Sample Diluent, in duplicate, to the sample wells. Add 20 μL of each Sample, in duplicate, to the designated wells. Add 50 μL of diluted biotin-conjugate to all wells, including the blank wells. Cover with a plate cover and incubate at room temperature, on a microplate shaker at 100 rpm if available, for 2 hours. Remove plate cover and empty the wells.
Wash microwell strips 3 times as described in step 2. Add 100 μL of diluted Streptavidin-HRP to all wells, including the blank wells. Cover with a plate cover and incubate at room temperature, on a microplate shaker at 100 rpm if available, for 1 hour. Remove plate cover and empty the wells.
Wash microwell strips 3 times as described in step 2. Proceed to the next step. Pipette 100 μl of mixed TMB Substrate Solution to all wells, including the blanks. Incubate the microwell strips at room temperature (18° to 25°C) for about 15 minutes, if available on a rotator set at 100 rpm.
Avoid direct exposure to intense light. The point, at which the substrate reaction is stopped, is often determined by the ELISA reader. Many ELISA readers record absorbance only up to 2.0
O.D. Therefore, the color development within individual microwells must be watched by the person running the assay and the substrate reaction stopped before positive wells are no longer properly detectable. Stop the enzyme reaction by quickly pipetting 100 μL of Stop Solution into each well, including the blank wells. It is important that the Stop Solution is spread quickly and uniformly throughout the microwells to completely inactivate the enzyme. Results must be read immediately after the Stop Solution is added or within one hour i f the microwell strips are stored at 2 - 8°C in the dark. Read absorbance of each microwell on a spectrophotometer using 450 nm as the primary wavelength.

The test system of assay [2] is Bax. Kind of assay: Bax activation assay. The class given is cell-based, human. The note with it: lung (A-549) cancer cells, compound at IC50. The procedure: Cells were obtained from American Type Culture Collection, cells were grown in RPMI 1640 containing 10% fetal bovine serum at 37°C, stimulated with the compounds to be tested for caspase8, and lysed with Cell Extraction Buffer. This lysate was diluted in Standard Diluent Buffer over the range of the assay and measured for human active caspase-8 content. […]
4.2.7. Bax activation assay
Bring all reagents, except the human Bax-α Standard, to room temperature for at least 30 minutes prior to opening. The human Bax-α Standard solution should not be left at room temperature for more than 10 minutes. All standards, controls and samples should be run in duplicate. Refer to the Assay Layout Sheet to determine the number of wells to be used and put any remaining wells with the desiccant back into the pouch and seal the ziploc. Store unused wells at 4 °C. Pipet 100 μL of Assay Buffer into the S0 (0 pg/mL standard) wells. Pipet 100 μL of Standards #1 through #6 into the appropriate wells. Pipet 100 μL of the Samples into the appropriate wells. Tap the plate gently to mix the contents. Seal the plate and incubate at room temperature on a plate shaker for 1 hour at ~500 rpm. Empty the contents of the wells and wash by adding 400 μL of wash solution to every well. Repeat the wash 4 more times for a total of 5 washes. After the final wash, empty or aspirate the wells and firmly tap the plate on a lint free paper towel to remove any remaining wash buffer.
Pipet 100 μL of yellow Antibody into each well, except the Blank. Seal the plate and incubate at room temperature on a plate shaker for 1 hour at ~500 rpm. Empty the contents of the wells and wash by adding 400 μL of wash solution to every well. Repeat the wash 4 more times for a total of 5 washes. After the final wash, empty or aspirate the wells and firmly tap the plate on a lint free paper towel to remove any remaining wash buffer. Add 100 μL of blue Conjugate to each well, except the Blank. Seal the plate and incubate at room temperature on a plate shaker for 30 minutes […]
Pipet 100 μL of Substrate Solution into each well. Incubate for 30 minutes at room temperature on a plate shaker at ~500 rpm. Pipet 100 μL Stop Solution to each well. Blank the plate reader against the Blank wells, read the optical density at 450 nm. Calculate the average net Optical Density (OD) bound for each standard and sample by subtracting the average Blank OD from the average OD for each standard and sample. Using linear graph paper, plot the Average Net OD for each standard versus Bax concentration in each standard. Approximate a straight line through the points.
The concentration of Bax in the unknowns can be determined by interpolation. […]

Assay [3] concerns the target aromatase. Conditions: read-out: Aromatase inhibition IC50, cited from earlier work.

With `CN[C@@H]1C[C@H]2O[C@@](C)([C@@H]1OC)n1c3ccccc3c3c4c(c5c6ccccc6n2c5c31)C(=O)NC4` [Staurosporine, reference compound], in assay [1], the “Bcl-2 Conc” value amounted to 1.00 ng/mL. The “Bax Conc” value in assay [2] worked out at 288 ± 2 pg/mL.
Consider `N#Cc1c(-c2ccccc2)[nH]c2ccccc12` [compound VII], for which, in assay [3] (2-aryl indole series, ref Prior et al., 2017), the IC50 was 1610 nM.
Turning to `COc1ccc(S(=O)(=O)NCCc2c(C(c3ccc(O)cc3)c3[nH]c4ccccc4c3CCNS(=O)(=O)c3ccc(OC)cc3)[nH]c3ccccc23)cc1` [compound VIII], in assay [3] (bis-/tris-indole sulfonamide series, ref Pingaew et al., 2018), the half-maximal inhibitory concentration (IC50) was 700 nM.
Consider `O=S(=O)(Cc1ccccc1)Nc1ccc2[nH]ccc2c1` [derivative IX], for which, in assay [3] (indole aryl sulfonamide series, ref Fantacuzzi et al., 2020), the IC50 was 160 nM.
